Data from paper PMC6471128, “Preparation and Identification of ACE Inhibitory Peptides from the Marine Macroalga Ulva intestinalis” (Marine Drugs, 2019).
Where two headings read alike, the source gives them in different places. Ends that are not written are not given here.

How the values were obtained:
ACE = details: cited from earlier work
Excerpt: ACE inhibitors (ACEIs) inhibit ACE activity and reduce blood pressure by inhibiting the synthesis of angiotensin II or promoting the release of bradykinin. Although ACEIs, such as enalapril, captopril, and lisinopril, are widely used in hypertension treatments, synthetic ACEIs have a series of negative effects, including hypotension, cough, increased potassium levels and, angioedema. Consequently, the development of safe and effective antihypertensive drugs is important, and due to antihypertensive effects and safety, there has been an increasing interest in food-derived ACE inhibito ...

ACE (from rabbit lung) [1] = molecular target: T1, ACE (from rabbit lung) (Oryctolagus cuniculus, UniProt P12822); assay: ACE inhibition and IC50 assay (FAPGG substrate); type: biochemical
T1 construct: ACE (from rabbit lung); purchased Sigma Chemical Co. (St. Louis, MO, USA); host or cells: rabbit lung tissue
T1 sequence (P12822 34-1310): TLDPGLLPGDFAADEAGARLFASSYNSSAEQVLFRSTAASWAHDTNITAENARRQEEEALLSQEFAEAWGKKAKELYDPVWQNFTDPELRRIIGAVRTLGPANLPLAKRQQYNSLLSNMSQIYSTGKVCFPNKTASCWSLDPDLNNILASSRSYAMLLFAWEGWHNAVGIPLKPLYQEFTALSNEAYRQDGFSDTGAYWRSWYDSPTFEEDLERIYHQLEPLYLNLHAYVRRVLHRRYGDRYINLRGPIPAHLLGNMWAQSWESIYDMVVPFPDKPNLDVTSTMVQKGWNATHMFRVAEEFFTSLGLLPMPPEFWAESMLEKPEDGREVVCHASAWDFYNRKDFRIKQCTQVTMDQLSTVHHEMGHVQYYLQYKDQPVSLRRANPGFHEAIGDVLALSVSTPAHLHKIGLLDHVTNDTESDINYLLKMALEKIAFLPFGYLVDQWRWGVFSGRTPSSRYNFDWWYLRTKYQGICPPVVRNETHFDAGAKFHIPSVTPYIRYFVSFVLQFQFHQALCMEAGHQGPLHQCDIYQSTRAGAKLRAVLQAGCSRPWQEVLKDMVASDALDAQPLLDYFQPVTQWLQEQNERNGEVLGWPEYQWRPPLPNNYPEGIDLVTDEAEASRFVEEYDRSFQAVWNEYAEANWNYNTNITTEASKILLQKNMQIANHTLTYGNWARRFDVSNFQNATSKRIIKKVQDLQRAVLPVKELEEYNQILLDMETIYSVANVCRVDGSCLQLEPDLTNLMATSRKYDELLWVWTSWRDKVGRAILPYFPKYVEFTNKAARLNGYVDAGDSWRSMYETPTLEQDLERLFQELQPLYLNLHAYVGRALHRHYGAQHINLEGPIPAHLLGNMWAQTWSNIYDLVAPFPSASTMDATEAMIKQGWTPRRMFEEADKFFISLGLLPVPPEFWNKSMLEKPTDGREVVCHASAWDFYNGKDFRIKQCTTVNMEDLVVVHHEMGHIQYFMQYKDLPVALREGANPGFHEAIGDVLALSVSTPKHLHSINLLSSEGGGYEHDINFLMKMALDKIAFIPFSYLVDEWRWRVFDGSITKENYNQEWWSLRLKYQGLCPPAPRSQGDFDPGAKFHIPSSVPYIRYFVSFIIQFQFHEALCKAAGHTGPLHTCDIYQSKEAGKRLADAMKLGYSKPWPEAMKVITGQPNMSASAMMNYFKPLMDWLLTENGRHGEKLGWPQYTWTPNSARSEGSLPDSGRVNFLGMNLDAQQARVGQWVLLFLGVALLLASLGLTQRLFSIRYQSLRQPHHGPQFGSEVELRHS
Method: (§1) ACE inhibition was examined according to Shalaby et al. and Henda et al., with slight modifications. FAPGG and ACE were dissolved in 50 mM Tris-HCl (pH 7.5) containing 300 mM NaCl. A sample solution (40 μL) was mixed with 100 μL of 0.88 mM FAPGG solution, and the mixture was incubated at 37 °C for 5 min. To start the reaction, 60 μL of ACE solution (0.20 U/mL) was added; absorbance was measured at 340 nm and recorded every 1 min for 30 min using a SpectraMax 190 absorbance microplate reader (Molecular Devices, Sunnyvale, USA). The slope averaged over a linear interval of 10–30 min was taken as a measure of the ACE inhibitory activity. The degree of ACE inhibition was calculated according to the following equation: ACE inhibition rate (%) = [1 − (slope inhibitior/slope control)] × 100(2)
The activity of each sample was tested in triplicate. The IC50 value, the concentration of peptide required to reduce ACE activity by 50%, was determined by regression analysis of ACE inhibition (%) vs. peptide concentration.

ACE (from rabbit lung) [2] = molecular target: T1, ACE (from rabbit lung); assay: In vitro simulated gastrointestinal digestion (pepsin, then trypsin) followed by ACE inhibitory activity assay; type: in vitro ADME; details: for stability for pepsin and trypsin digestion: in vitro digestion, read-out ACE inhibitory activity
Method: as §1
In vitro digestion was performed according to the method of Cing et.al. The purified peptide sample was mixed with 0.1 M phosphate buffer (pH 2.0) and pepsin (E/S 4%, w/w); the reaction was allowed to proceed for 2 h at 37 °C and stopped by heating at 100 °C for 10 min. Subsequently, the remaining suspension was adjusted to pH 8.0 with 5 M NaOH solution and further digested with trypsin (E/S 4%, w/w); the solution was incubated at 37 °C for 2 h and then heated at 100 °C for 10 min. The protein hydrolysate was centrifuged at 8000 rpm/min for 15 min, and the supernatant was assayed for ACE inhibitory activity.

[3] = molecular target: T2, Angiotensin I-converting enzyme (from rabbit lung) (rabbit) (UniProt P12822)
T2 sequence: T1 sequence (P12822 34-1310)

[4] = molecular target: T2, Angiotensin I-converting enzyme (from rabbit lung) (rabbit); remark: listed apart in the source
[5] = peptides from Undaria pinnatifida
[6] = peptides from Porphyra yezoensis
[7] = peptides purified from Ulva rigida protein hydrolysate
[8] = peptides identified in fraction C2-8, FAPGG 0.88 mM, ACE 0.20 U/mL, 50 mM Tris-HCl pH 7.5, 300 mM NaCl, 37 °C, absorbance 340 nm, tested in triplicate
[9] = purified ACE inhibitors, same values as in μM given in mg/mL
[10] = pH 2, synthetic peptide at 0.2 mg/mL, after pepsin hydrolysis for 2 h (0.1 M phosphate buffer pH 2.0, E/S 4% w/w, 37 °C)
[11] = synthetic peptide at 0.2 mg/mL, Control (no digestion)
[12] = synthetic peptide at 0.2 mg/mL, pepsin hydrolysis for 2 h (pH 2.0, 37 °C) followed by trypsin hydrolysis for 2 h (pH 8.0, 37 °C), E/S 4% w/w each

Ala-Ile-Tyr-Lys
IC50 (ACE; [5]): 213 µM

Ala-Lys-Tyr-Ser-Tyr
IC50 (ACE; [6]): 1.52 µM

Ala-Phe-Leu
IC50 (ACE; [7]): 65.8 µM

FGMPLDR [FGMPLDR, Phe-Gly-Met-Pro-Leu-Asp-Arg]
IC50 (ACE (from rabbit lung) [1]; [8]): 219 µM | IC50 (ACE (from rabbit lung) [1]; [9]): 219 µM | stability for pepsin and trypsin digestion (ACE (from rabbit lung) [2]): good stability | inhibition at 200 µg/mL (ACE (from rabbit lung) [2]; [10]): 52.98 ± 0.19% | inhibition at 200 µg/mL (ACE (from rabbit lung) [2]; [11]): 50.07 ± 0.07% | inhibition at 200 µg/mL (ACE (from rabbit lung) [2]; [12]): 51.32 ± 0.02%

Gln-Val-Glu-Tyr
IC50 (ACE; peptide from hydrolyzed Gracilariopsis lemaneiformis): 474 µM

Ile-Pro
IC50 (ACE; [7]): 87.6 µM

Ile-Tyr
IC50 (ACE; [6]): 2.69 µM

Leu-Arg-Tyr
IC50 (ACE; [6]): 5.06 µM

Lys-Phe-Tyr-Gly
IC50 (ACE; [5]): 90.5 µM

MELVLR [MELVLR, Met-Glu-Leu-Val-Leu-Arg]
IC50 (ACE (from rabbit lung) [1]; [8]): 237 µM | IC50 (ACE (from rabbit lung) [1]; [9]): 236 µM | stability for pepsin and trypsin digestion (ACE (from rabbit lung) [2]): good stability | inhibition at 200 µg/mL (ACE (from rabbit lung) [2]; [10]): 56.84 ± 0.04% | inhibition at 200 µg/mL (ACE (from rabbit lung) [2]; [11]): 59.92 ± 0.04% | inhibition at 200 µg/mL (ACE (from rabbit lung) [2]; [12]): 58.63 ± 0.13%

Met-Lys-Tyr
IC50 (ACE; [6]): 7.26 µM

Tyr-Asn-Lys-Leu
IC50 (ACE; [5]): 21 µM

Tyr-Lys-Tyr-Tyr
IC50 (ACE; [5]): 64.2 µM

FGMPLDR [Phe-Gly-Met-Pro-Leu-Asp-Arg]
ACE Inhibitory Activity (%) of the synthetic peptide at 0.2 mg/mL, after pepsin hydrolysis for 2 h [3]: 53% | ACE Inhibitory Activity (%) of the synthetic peptide at 0.2 mg/mL, after pepsin hydrolysis for 2 h followed by trypsin hydrolysis for 2 h [3]: 51.3% | ACE Inhibitory Activity (%) of the synthetic peptide at 0.2 mg/mL, control (not digested) [3]: 50.1% | IC50 of ACE inhibition (hydrolysis of FAPGG by ACE, absorbance at 340 nm, 37 °C, 50 mM Tris-HCl pH 7.5, 300 mM NaCl) [4]: 219 μM

MELVLR [Met-Glu-Leu-Val-Leu-Arg]
ACE Inhibitory Activity (%) of the synthetic peptide at 0.2 mg/mL, after pepsin hydrolysis for 2 h [3]: 56.8% | ACE Inhibitory Activity (%) of the synthetic peptide at 0.2 mg/mL, after pepsin hydrolysis for 2 h followed by trypsin hydrolysis for 2 h [3]: 58.6% | ACE Inhibitory Activity (%) of the synthetic peptide at 0.2 mg/mL, control (not digested) [3]: 59.9% | IC50 of ACE inhibition (hydrolysis of FAPGG by ACE, absorbance at 340 nm, 37 °C, 50 mM Tris-HCl pH 7.5, 300 mM NaCl) [4]: 237 μM
